From patent US20200079819A1, “Use of a Vaccine Targeting a Cryptic Tert Epitope, for Treating Lung Cancer in a HLA-A*0201-Positive Never-Smoker or Light-Former Smoker Patient” (Vaxon Biotech, priority 2017, published 2020)
Where “and” joins values, the source holds several entries; their conditions need not be identical. Identical values can stand only once. No end group written: not given here.

Tested on: HLA-A*0201 positive patients with NSCLC expressing TERT
Test: Vx-001-201 randomized double blind phase IIb clinical trial (OS, TTF, 12 months survival)
Assay type: in vivo, human
Excerpt: The Vx-001-201 study is a randomized, double blind multicenter study done in 70 centers in France, Germany, Spain, Italy, Greece, Poland, Romania and Czech Republic. Key eligibility criteria were a) non small cell lung cancer (NSCLC), b) stage IV or recurrent stage I-III, c) disease control after platinum based first line chemotherapy according to RECIST 1.1 criteria, d) HLA-A*0201 positivity, e) tumors expressing TElomerase Reverse Transcriptase (TERT), f) ECOG 0 or 1 g) absence of brain metastasis.
a) Principal endpoint: overall survival (OS) measured from randomization
b) Secondary endpoints: • Time to Treatment Failure (TTF) measured from randomization • OS at 12 months
Patients who fulfilled all inclusion criteria were randomized within 4 weeks after the end of first line chemotherapy.
The vaccination protocol consisted in six vaccinations at three weeks interval. The optimized Vx-001/TERT572Y was used in the first two vaccinations and the native Vx-001/TERT572 in the following four vaccinations. Patients who continued controlling their disease after the sixth vaccination received boost vaccination with the Vx-001/TERT572 every three months. Vaccination was stopped at disease progression (FIG. 1).
The primary and secondary endpoints were analysed in the Full Analysis Set composed of all patients who fulfilled the […] five main criteria a) NSCLC, b) stage IV or recurrent stage I-III, and c) disease control after first line chemotherapy, d) HLA-A*0201 positivity and e) TERT expressing tumors.
We used the Kaplan-Meier method to estimate OS and TTF in each arm and a Cox proportional hazards regression model to estimate Hazard Ratio (HR) relating OS and TTF to the treatment effect.

[1] = FAS patients, all, Vx-001 vs placebo
[2] = FAS, 1st line chemotherapy CARBO (n = 119), Vx-001 arm
[3] = FAS, 1st line chemotherapy CDDP (n = 69), Vx-001 arm
[4] = FAS, Current smoker (n = 50), including light-smoker (≤25 years) (n = 5), Vx-001 arm
[5] = FAS, Female (n = 59), Vx-001 arm
[6] = FAS, Male (n = 131), Vx-001 arm
[7] = FAS, NS + Former smokers (<30 years)(n = 61), Vx-001 arm
[8] = FAS, NS + Former smokers (≤20 years)(n = 47), Vx-001 arm
[9] = FAS, Never smokers (NS) (n = 25), Vx-001 arm
[10] = FAS, age <65 years (n = 92), Vx-001 arm
[11] = FAS, age >65 years (n = 98), Vx-001 arm
[12] = FAS, response to chemotherapy OR (n = 87), Vx-001 arm
[13] = FAS, response to chemotherapy SD (n = 103), Vx-001 arm
[14] = FAS, sub-group NSQ (n = 118), Vx-001 arm
[15] = FAS, sub-group SQ (n = 72), Vx-001 arm
[16] = NS + Former smokers (≤25 years), all (n = 55), Vx-001 arm
[17] = never-smokers and light-smokers (≤25 years, stopped or not), <65 y (n = 28), Vx-001 arm
[18] = never-smokers and light-smokers (≤25 years, stopped or not), >65 y (n = 32), Vx-001 arm
[19] = never-smokers and light-smokers (≤25 years, stopped or not), All (n = 60), Vx-001 arm
[20] = never-smokers and light-smokers (≤25 years, stopped or not), ECOG 0 (n = 28), Vx-001 arm
[21] = never-smokers and light-smokers (≤25 years, stopped or not), ECOG 1 (n = 32), Vx-001 arm
[22] = never-smokers and light-smokers (≤25 years, stopped or not), Female (n = 25), Vx-001 arm
[23] = never-smokers and light-smokers (≤25 years, stopped or not), Male (n = 35), Vx-001 arm
[24] = never-smokers and light-smokers (≤25 years, stopped or not), NSQ (n = 46), Vx-001 arm

Question: Which results are given for “Vx-001: vaccine composed of two nine-amino-acid peptides, TERT572 (SEQ ID No: 1) and TERT572Y (SEQ ID No: 2), administered separately with adjuvant Montanide ISA51 VG (chain 1 RLFFYRKSV; chain 2 YLFFYRKSV; not fully specified)”?
Answer: 12 months survival (FAS patients, all, Vx-001 arm): 58%; OS (median) (FAS patients, all, Vx-001 arm): 14.3 months; TTF (median) (FAS patients, all, Vx-001 arm): 3.6 months; HR (OS) [1]: 0.97; HR (TTF) [1]: 0.88; 12 months OS (%) [2]: 58.2%; Median survival (months) [2]: 14.3 months; HR (OS) (FAS, 1st line chemotherapy CARBO (n = 119), Vx-001 vs placebo): 1.06; 12 months OS (%) [3]: 59%; Median survival (months) [3]: 15 months; HR (OS) (FAS, 1st line chemotherapy CDDP (n = 69), Vx-001 vs placebo): 0.81; 12 months OS (%) [4]: 37.5%; Median survival (months) [4]: 9 months; HR (OS) (FAS, Current smoker (n = 50), including light-smoker (≤25 years) (n = 5), Vx-001 vs placebo): 1.39; 12 months OS (%) [5]: 53.3%; Median survival (months) [5]: 13.2 months; HR (OS) (FAS, Female (n = 59), Vx-001 vs placebo): 1.52; 12 months OS (%) [6]: 61%; Median survival (months) [6]: 15 months; HR (OS) (FAS, Male (n = 131), Vx-001 vs placebo): 0.81; 12 months OS (%) [7]: 69%; Median survival (months) [7]: 16.2 months; HR (OS) (FAS, NS + Former smokers (<30 years)(n = 61), Vx-001 vs placebo): 0.67; 12 months OS (%) [8]: 72.7%; Median survival (months) [8]: 15.3 months; HR (OS) (FAS, NS + Former smokers (≤20 years)(n = 47), Vx-001 vs placebo): 0.67; 12 months OS (%) [9]: 70%; Median survival (months) [9]: 14.1 months; HR (OS) (FAS, Never smokers (NS) (n = 25), Vx-001 vs placebo): 0.76; 12 months OS (%) [10]: 57.7%; Median survival (months) [10]: 13.4 months; HR (OS) (FAS, age <65 years (n = 92), Vx-001 vs placebo): 1.2; 12 months OS (%) [11]: 59%; Median survival (months) [11]: 15 months; HR (OS) (FAS, age >65 years (n = 98), Vx-001 vs placebo): 0.78; 12 months OS (%) [12]: 69%; Median survival (months) [12]: 15.3 months; HR (OS) (FAS, response to chemotherapy OR (n = 87), Vx-001 vs placebo): 0.89; 12 months OS (%) [13]: 52%; Median survival (months) [13]: 14.3 months; HR (OS) (FAS, response to chemotherapy SD (n = 103), Vx-001 vs placebo): 0.99; 12 months OS (%) [14]: 55%; Median survival (months) [14]: 13.4 months; HR (OS) (FAS, sub-group NSQ (n = 118), Vx-001 vs placebo): 0.88; 12 months OS (%) [15]: 64%; Median survival (months) [15]: 14.3 months; HR (OS) (FAS, sub-group SQ (n = 72), Vx-001 vs placebo): 1.13; 12 months OS (%) [16]: 73% and 73.1%; Median survival (months) [16]: 16.2 months; 12 months OS [17]: 76.9%; OS (months) [17]: 20.2 months; HR (OS) (never-smokers and light-smokers (≤25 years, stopped or not), <65 y (n = 28), Vx-001 vs placebo): 0.50; 12 months OS [18]: 64.3%; OS (months) [18]: 15.3 months; HR (OS) (never-smokers and light-smokers (≤25 years, stopped or not), >65 y (n = 32), Vx-001 vs placebo): 0.62; 12 months OS [19]: 70.4%; OS (months) [19]: 20.2 months; HR (OS) (never-smokers and light-smokers (≤25 years, stopped or not), All (n = 60), Vx-001 vs placebo): 0.55; 12 months OS [20]: 66.7%; OS (months) [20]: 24.7 months; HR (OS) (never-smokers and light-smokers (≤25 years, stopped or not), ECOG 0 (n = 28), Vx-001 vs placebo): 0.52; 12 months OS [21]: 73.3%; OS (months) [21]: 15.3 months; HR (OS) (never-smokers and light-smokers (≤25 years, stopped or not), ECOG 1 (n = 32), Vx-001 vs placebo): 0.49; 12 months OS [22]: 61.5%; OS (months) [22]: 15.3 months; HR (OS) (never-smokers and light-smokers (≤25 years, stopped or not), Female (n = 25), Vx-001 vs placebo): 0.95; 12 months OS [23]: 78.6%; OS (months) [23]: 24.7 months; HR (OS) (never-smokers and light-smokers (≤25 years, stopped or not), Male (n = 35), Vx-001 vs placebo): 0.34; 12 months OS [24]: 70.0%; OS (months) [24]: 20.2 months; HR (OS) (never-smokers and light-smokers (≤25 years, stopped or not), NSQ (n = 46), Vx-001 vs placebo): 0.50; 12 months OS (never-smokers and light-smokers (≤25 years, stopped or not), SQ (n = 14), Vx-001 arm): 71.4%
